System: P12-Ichikawa
Assay: cell viability relative to DMSO control; higher = less cytotoxic
Settings: 48 h
Method in brief: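 NOMO1 or SEM (500 cells/well) or P12-Ichikawa (1000 cells/well) leukemia cells were adapted for at least four passages in each medium. They were seeded in 1536-well plates (5 μl) and pin-dosed with library compounds in DMSO over an 11-point threefold series, 47 μM to 0.79 nM. CellTiter-Glo One luminescence was read after 48 h at 37°C. Viability is the per-plate percentage relative to DMSO wells, with cell-free wells as background.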

[1] = HPLM + 10% dialyzed FBS, 0.000781 µM
[2] = HPLM + 10% dialyzed FBS, 0.00234 µM
[3] = HPLM + 10% dialyzed FBS, 0.00702 µM
[4] = HPLM + 10% dialyzed FBS, 0.0211 µM
[5] = HPLM + 10% dialyzed FBS, 0.0632 µM
[6] = HPLM + 10% dialyzed FBS, 0.19 µM
[7] = HPLM + 10% dialyzed FBS, 0.569 µM
[8] = HPLM + 10% dialyzed FBS, 1.71 µM
[9] = HPLM + 10% dialyzed FBS, 5.12 µM
[10] = HPLM + 10% dialyzed FBS, 15.4 µM
[11] = HPLM + 10% dialyzed FBS, 46.1 µM
[12] = RPMI 5 mM glucose + 10% FBS, 0.000781 µM
[13] = RPMI 5 mM glucose + 10% FBS, 0.00234 µM
[14] = RPMI 5 mM glucose + 10% FBS, 0.00702 µM
[15] = RPMI 5 mM glucose + 10% FBS, 0.0211 µM
[16] = RPMI 5 mM glucose + 10% FBS, 0.0632 µM
[17] = RPMI 5 mM glucose + 10% FBS, 0.19 µM
[18] = RPMI 5 mM glucose + 10% FBS, 0.569 µM
[19] = RPMI 5 mM glucose + 10% FBS, 1.71 µM
[20] = RPMI 5 mM glucose + 10% FBS, 5.12 µM
[21] = RPMI 5 mM glucose + 10% FBS, 15.4 µM
[22] = RPMI 5 mM glucose + 10% FBS, 46.1 µM
[23] = RPMI 5 mM glucose + 10% dialyzed FBS, 0.000781 µM
[24] = RPMI 5 mM glucose + 10% dialyzed FBS, 0.00234 µM
[25] = RPMI 5 mM glucose + 10% dialyzed FBS, 0.00702 µM
[26] = RPMI 5 mM glucose + 10% dialyzed FBS, 0.0211 µM
[27] = RPMI 5 mM glucose + 10% dialyzed FBS, 0.0632 µM
[28] = RPMI 5 mM glucose + 10% dialyzed FBS, 0.19 µM
[29] = RPMI 5 mM glucose + 10% dialyzed FBS, 0.569 µM
[30] = RPMI 5 mM glucose + 10% dialyzed FBS, 1.71 µM
[31] = RPMI 5 mM glucose + 10% dialyzed FBS, 5.12 µM
[32] = RPMI 5 mM glucose + 10% dialyzed FBS, 15.4 µM
[33] = RPMI 5 mM glucose + 10% dialyzed FBS, 46.1 µM

SMILES	cell viability [1]	cell viability [2]	cell viability [3]	cell viability [4]	cell viability [5]	cell viability [6]	cell viability [7]	cell viability [8]	cell viability [9]	cell viability [10]	cell viability [11]	cell viability [12]	cell viability [13]	cell viability [14]	cell viability [15]	cell viability [16]	cell viability [17]	cell viability [18]	cell viability [19]	cell viability [20]	cell viability [21]	cell viability [22]	cell viability [23]	cell viability [24]	cell viability [25]	cell viability [26]	cell viability [27]	cell viability [28]	cell viability [29]	cell viability [30]	cell viability [31]	cell viability [32]	cell viability [33]
COc1cc(C[C@@H](CO)[C@H](CO)Cc2ccc(O)c(OC)c2)ccc1O	94.8%	102%	100%	105%	106%	116%	112%	111%	104%	99.6%	115%	99.4%	95.1%	108%	109%	109%	111%	118%	119%	114%	117%	110%	109%	112%	113%	118%	118%	122%	119%	133%	134%	136%	125%
NC(=O)N1CCC(CC(=O)N2CCC([C@H]3c4ncc(Br)cc4CCc4cc(Cl)cc(Br)c43)CC2)CC1	107%	116%	114%	114%	114%	108%	96.9%	95.2%	78.6%	71.9%	52.9%	107%	104%	125%	121%	117%	106%	87.6%	85.9%	75.4%	62.9%	42.5%	108%	108%	118%	112%	109%	110%	94.6%	90%	78.9%	69.7%	42.2%
c1ccc2c(CN3CCNCC3)cccc2c1	111%	112%	113%	108%	113%	112%	109%	116%	118%	111%	35%	106%	104%	102%	112%	111%	107%	112%	111%	112%	110%	26.4%	107%	108%	109%	107%	114%	115%	117%	110%	118%	119%	41.1%
CC(C)(C)NCC(O)c1ccc(O)c(CO)c1 (stereo unspecified)	117%	115%	114%	105%	119%	121%	110%	97.8%	90.5%	86.5%	80%	101%	116%	121%	114%	111%	113%	103%	103%	84.4%	71.4%	68.3%	94.9%	108%	109%	106%	105%	109%	102%	110%	80.8%	73.3%	68.4%
NC[C@H](O)c1ccc(O)c(O)c1	98.9%	100%	99%	103%	98.8%	102%	97.4%	92.4%	92.8%	92.6%	83.5%	101%	99.5%	94.1%	98.9%	105%	96.7%	97.6%	92.3%	91.2%	90.2%	84.4%	89.9%	96%	99.9%	88.1%	96.1%	97.6%	86.3%	93.6%	92%	86.5%	81.5%
COc1cc2c(cc1OC)CN(CCc1ccc(NC(=O)c3cccc4c(=O)c5cccc(OC)c5[nH]c34)cc1)CC2	101%	105%	107%	118%	111%	112%	123%	21.1%	11.5%	5%	3.03%	96.9%	101%	102%	111%	109%	112%	113%	119%	25.2%	5.14%	2.82%	104%	109%	112%	111%	113%	121%	110%	103%	20%	6.37%	2.85%
CC[C@H](C)C(=O)O[C@H]1C[C@@H](C)\C=C2\C=C/[C@H](C)[C@H](CC[C@@H]3C[C@@H](O)CC(=O)O3)[C@@H]12	91.8%	94.1%	93.3%	91.4%	92.1%	87.7%	97.1%	91.7%	89.3%	64.5%	46.8%	76.3%	90.1%	87.6%	89.1%	84.5%	82.3%	89.6%	84.9%	83.1%	44.1%	24%	80%	89.8%	89.5%	85.5%	94.6%	88.3%	84.4%	77.9%	77.4%	54.8%	29.7%

Reference: the supplement of paper PMC11451515
